Patent publication US9539256B2 (THE BOARD OF REGENTS OF THE UNIVERSITY OF TEXAS SYSTEM, priority 2012, dated 2017)
“Also recorded” adds a separate entry of the source.

How the values were obtained:
EPAC1 = target: T1, EPAC1 (Homo sapiens, UniProt O95398); assay: Rap1 activation assay in HEK293/EPAC1 cells; type: cell-based
T1 sequence (O95398 1-923): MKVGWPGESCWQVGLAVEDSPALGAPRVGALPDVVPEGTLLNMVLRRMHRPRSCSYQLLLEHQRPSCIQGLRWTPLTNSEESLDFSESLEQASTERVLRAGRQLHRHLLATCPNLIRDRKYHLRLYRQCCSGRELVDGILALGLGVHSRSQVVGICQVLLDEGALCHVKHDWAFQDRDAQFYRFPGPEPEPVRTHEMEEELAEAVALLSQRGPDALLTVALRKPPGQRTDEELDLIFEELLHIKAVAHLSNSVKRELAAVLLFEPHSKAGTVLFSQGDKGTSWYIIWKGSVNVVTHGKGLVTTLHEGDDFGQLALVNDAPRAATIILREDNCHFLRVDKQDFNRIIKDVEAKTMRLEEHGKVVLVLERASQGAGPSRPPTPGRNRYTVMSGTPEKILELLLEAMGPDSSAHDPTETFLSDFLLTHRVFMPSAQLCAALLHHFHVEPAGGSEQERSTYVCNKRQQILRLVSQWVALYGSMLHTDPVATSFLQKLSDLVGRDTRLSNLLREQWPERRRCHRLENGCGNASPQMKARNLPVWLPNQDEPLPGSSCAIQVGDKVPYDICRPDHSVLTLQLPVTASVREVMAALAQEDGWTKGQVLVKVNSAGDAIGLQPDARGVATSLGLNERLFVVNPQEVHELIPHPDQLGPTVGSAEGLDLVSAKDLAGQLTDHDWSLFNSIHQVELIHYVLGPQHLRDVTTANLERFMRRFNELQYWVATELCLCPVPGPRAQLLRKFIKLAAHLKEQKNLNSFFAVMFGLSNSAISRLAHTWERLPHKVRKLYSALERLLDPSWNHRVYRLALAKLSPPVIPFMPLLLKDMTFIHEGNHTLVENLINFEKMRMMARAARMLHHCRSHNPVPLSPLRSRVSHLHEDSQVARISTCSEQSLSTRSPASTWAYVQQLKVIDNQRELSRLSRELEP
Method: FIGS. 9A-9B. Effects of EPAC2-specific antagonists on 007-AM-mediated cellular activation of Rap1. […] GTP-bound Rap1 (Rap1GTP) obtained by a Ral-GDSRBD-GST pull-down assay and total cellular Rap1 were detected by immunoblotting with Rap1-specific antibody. […] At test was used to determine statistical significance (*P<0.05).
Cellular activation of Rap1 was determined by pull-down of lysates derived from human vascular smooth muscle cell and HEK293 cells stably expressing EPAC1 or EPAC2 employing Ral-GDS-RBD-GST affinity beads as described earlier (Mei and Cheng (2005) Molecular Biosystems 1: 325-331).

AsPC-1 and PANC-1 cells [1] = assay: Pancreatic cancer cell viability, alamar blue assay; type: cell-based; set-up: dose or concentration left out as unconfirmed; details: ESI-09 for 24 hours and 48 hours
Method: FIG. 11. Effects of ESI-09 treatment on pancreatic cancer cell viability. AsPC-1 and PANC-1 cells were treated with vehicle control (open bars) or with […] ESI-09 (filled bars) for 24 hours and 48 hours. Cell viability was measured by a fluorometric alamar blue assay. Bars represent mean±s.d. (n=3).

AsPC-1 and PANC-1 cells [2] = assay: Cell adhesion assay on collagen I matrix; type: cell-based; details: pre-treatment 5 minutes, 10 μM 007-AM
Method: FIG. 13 ESI-09 inhibits EPAC1-mediated adhesion of PDA cells on collagen I. AsPC-1 and PANC-1 cells were stimulated with vehicle or 10 μM 007-AM after treatment with the indicated concentrations of ESI-09 for 5 minutes. Bars represent mean±s.d.
It has been recently reported that EPAC1 is over-expressed in pancreatic adenocarcinoma (Lorenz et al. (2008) Pancreas 37: 102-103). However, the functional role of EPAC1 elevation in this neoplasm is not clear. The inventors sought to employ ESI-09 to determine the role of EPAC1 signaling in pancreatic cancer. […] In order to determine if the observed impact on cell migration is EPAC1 specific, the effect of suppressing EPAC1 expression on AsPC-1 and PANC-1 migration using RNAi was examined. […] To further determine how ESI-09 inhibits PDA cell migration and invasion, a cell adhesion assay was performed using a collagen I matrix. […] To determine the in vivo anti-metastatic effect of ESI-09, MIA PaCa-2 stably expressing luciferase were orthotopically implanted into the pancreas of athymic nude mice. The mice were randomly divided into two groups and treated with vehicle or ESI-09 (50 mg/kg per day, oral gavage), respectively. The growth and metastasis of the tumors were monitored by weekly bioluminescence imaging using the IVIS bioluminescence imaging system.

R. australia = assay: Lethal-dose R. australia infection of mice; type: in vivo; details: WT C57BL/6 mice, 10 mg/kg, IP daily
Method: FIG. 21. ESI-09 treatment protects mice from lethal-dose infection of R. australia. WT C57BL/6 mice were treated with vehicle or ESI-09 (10 mg/kg, IP) daily. Five days after the treatment, mice were challenged with lethal dose of R. australia and continued ESI-09 daily treatment. Severity of illness and survival rate were monitored.
To test if EPAC inhibitors are capable of protecting mice from lethal-dose infection of R. australia. WT C57BL/6 mice were treated with vehicle or ESI-09 (10 mg/kg, IP) daily. Five days after the treatment, mice were challenged with lethal dose of R. australia and continued ESI-09 daily treatment.

pSTAT3 Y705 = assay: Leptin signaling in organotypic brain slice cultures, Western blotting; type: cell-based, mice; details: basal state and in response to leptin stimulation
Method: FIGS. 17A-17B. Pharmacological inhibition of EPAC reduces plasma leptin and enhances leptin signaling in hypothalamus (A) Western blotting of pSTAT3 Y705, total STAT3, SOCS3, SHP2 and α-tubulin in organotypic brain slices at hypothalamus level treated with leptin with or without EPAC specific inhibitor. (B) Plasma leptin levels of 8-week-old wild-type mice treated 3 weeks with vehicle or ESI-09 (50 mg/kg).
To explore the feasibility of increasing leptin sensitivity by targeting Epac1 using small molecules, organotypic brain slice cultures were prepared from 11-day old wild-type C57BL/6 mice. After 7 days ex vivo culture, treatment of the brain tissue with the Epac specific antagonist ESI-09 led to an enhanced pSTAT3 Y705 level both at the basal state and in response to leptin stimulation. […] These pharmacological data are in agreement with results obtained using Epac1 KO mice and further confirm that inhibition of Epac1 enhances leptin signaling in the hypothalamus. To further investigate the therapeutic potential of this small molecule, wild-type mice were with ESI-09 (50 mg/kg) or vehicle (corn oil) by oral gavage for 3 weeks.

Structure (SMILES): CC(C)(C)c1cc(C(=O)C(C#N)=NNc2cccc(Cl)c2)no1 [ESI-09, 3-(5-Tert-Butyl-Isoxazol-3-Yl)-2-[(3-Chlorophenyl)-Hydrazono]-3-Oxo-Propionitrile]
- 007-AM induced Rap1 activation (EPAC1): effective
- cell proliferation and viability (AsPC-1 and PANC-1 cells [1]): did not significantly affect
- 007-AM induced cell adhesion (AsPC-1 and PANC-1 cells [2]): decreased 007-AM induced cell adhesion dose-dependently; also recorded: inhibits
- protection of R. australia infection (R. australia): striking protection; also recorded: protects
- treatment group showing sign of sickness (R. australia): 10%
- pSTAT3 Y705 level (pSTAT3 Y705): enhanced
